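Briefly, cells in 96-well plates were exposed to five compound concentrations for 48 h, and endpoints were estimated by linear interpolation. The concentration for 50% growth inhibition is given as GI50. At the TGI there is no net growth.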

Among the test systems are SK-OV-3 ovarian; UACC-62 melanoma; HS 578T breast; M14 melanoma; MCF7 breast; HT29 colon; SN12C renal; MDA-MB-231 breast; SNB-19 CNS; RPMI-8226 leukemia.
Assay in all cases: NCI tumour cell line growth inhibition, 48 h

For the compound `C=C1C(=O)O[C@H]2[C@H]1CC/C(COC(=O)CSCC(=O)OC/C1=C/CC[C@@]3(C)O[C@H]3[C@H]3OC(=O)C(=C)[C@@H]3CC1)=C\CC[C@@]1(C)O[C@@H]21`, the GI50 with SK-OV-3 ovarian was 15.6 µM; in the assay on UACC-62 melanoma, 1.69 µM; in the assay with HS 578T breast, 3.52 µM; with M14 melanoma, 1.63 µM; with MCF7 breast, 0.48 µM; in the assay with HT29 colon it was 1.22 µM. Also, the GI50 in the assay on SN12C renal is 1.6 µM; with MDA-MB-231 breast, 1.63 µM; in the assay with SNB-19 CNS it was 3.11 µM; in the assay with RPMI-8226 leukemia, 1.45 µM. Further, the TGI is 29.1 µM with SK-OV-3 ovarian; 3.95 µM with UACC-62 melanoma; 19.3 µM in the assay with HS 578T breast; 3.87 µM with M14 melanoma; 2.33 µM with MCF7 breast; 2.56 µM in the assay on HT29 colon. For the same compound, the TGI was found to be 3.54 µM with SN12C renal, 3.34 µM in the assay with MDA-MB-231 breast, 13.9 µM in the assay on SNB-19 CNS and 4.01 µM in the assay on RPMI-8226 leukemia.
With `C=CCC1(O)c2cccc(NCCO)c2C(=O)c2c(NCCO)cccc21`, the GI50 with SK-OV-3 ovarian, in the assay with UACC-62 melanoma, with HS 578T breast, in the assay with M14 melanoma, in the assay with MCF7 breast and in the assay on HT29 colon was above 100 µM each time. The GI50 in the assay on SN12C renal, in the assay with MDA-MB-231 breast, in the assay with SNB-19 CNS and in the assay with RPMI-8226 leukemia was above 100 µM in each case. In addition, the TGI in the assay on SK-OV-3 ovarian, in the assay with UACC-62 melanoma, in the assay on HS 578T breast, in the assay with M14 melanoma, in the assay with MCF7 breast and with HT29 colon was above 100 µM in each case. Besides, the TGI in the assay on SN12C renal, in the assay with MDA-MB-231 breast, in the assay on SNB-19 CNS and in the assay with RPMI-8226 leukemia was above 100 µM in each case.
With `COc1ccccc1/C=N\N=C(N/N=C/c1ccccc1OC)N/N=C/c1ccccc1OC`, the GI50 in the assay on SK-OV-3 ovarian is 2.68 µM; in the assay with UACC-62 melanoma, 2.55 µM; in the assay with HS 578T breast, 2.88 µM; in the assay on M14 melanoma, 2.99 µM; in the assay with MCF7 breast it was 3.02 µM; with HT29 colon, 3.87 µM. The GI50 in the assay with SN12C renal is 3.35 µM; with MDA-MB-231 breast, 3.2 µM; in the assay on SNB-19 CNS it was 3.37 µM; in the assay on RPMI-8226 leukemia, 2.96 µM. Further, the TGI in the assay with SK-OV-3 ovarian is 8.32 µM; in the assay on UACC-62 melanoma it was 7.71 µM; in the assay with HS 578T breast, 53.2 µM; with M14 melanoma, 9.96 µM; in the assay on MCF7 breast, 23.5 µM; in the assay on HT29 colon, above 100 µM. In addition, the TGI in the assay with SN12C renal was 19.7 µM; in the assay with MDA-MB-231 breast, 9.11 µM; in the assay with SNB-19 CNS, above 100 µM; in the assay with RPMI-8226 leukemia, 12.3 µM.
For `CC(C)NC(=O)OCc1c(COC(=O)NC(C)C)c(-c2ccc(Cl)cc2)n2c1CCC2`, the GI50 in the assay on SK-OV-3 ovarian is 2.92 µM; with UACC-62 melanoma, 2.08 µM; in the assay with HS 578T breast, 2.91 µM; in the assay with M14 melanoma, 2.99 µM; in the assay on MCF7 breast, 3.59 µM; in the assay on HT29 colon, 4.02 µM. For the same compound, the GI50 with SN12C renal is 2.29 µM; in the assay with MDA-MB-231 breast it was 2.96 µM; in the assay with SNB-19 CNS it was 4.65 µM; in the assay with RPMI-8226 leukemia it was 2.6 µM. For the same compound, the TGI is 12.5 µM in the assay with SK-OV-3 ovarian; 7.56 µM in the assay on UACC-62 melanoma; 11.8 µM in the assay on HS 578T breast; 11.1 µM in the assay with M14 melanoma; 33.4 µM in the assay on MCF7 breast; 26.4 µM in the assay with HT29 colon. Also, the TGI amounted to 15.4 µM in the assay on SN12C renal, 12.3 µM in the assay on MDA-MB-231 breast, 21.7 µM in the assay with SNB-19 CNS and 23.8 µM with RPMI-8226 leukemia.
On to `Cc1ccc2c(c1)NC(=O)CC(c1ccccc1)=N2`, for which the TGI with SK-OV-3 ovarian, in the assay with UACC-62 melanoma, with HS 578T breast, with M14 melanoma, with MCF7 breast and in the assay on HT29 colon was above 100 µM in each case. Moreover, the TGI in the assay on SN12C renal is above 100 µM; in the assay with MDA-MB-231 breast, 79.9 µM; in the assay with SNB-19 CNS it was above 100 µM; with RPMI-8226 leukemia it was 76.7 µM.
As to `COC(=O)C1(F)C(=O)NC(=O)NC1O` (stereo not given), the TGI in the assay with SK-OV-3 ovarian, in the assay with UACC-62 melanoma, in the assay on HS 578T breast, in the assay with M14 melanoma, in the assay on MCF7 breast and in the assay with HT29 colon was above 100 µM throughout. The TGI in the assay with SN12C renal, in the assay with MDA-MB-231 breast, in the assay on SNB-19 CNS and with RPMI-8226 leukemia was above 100 µM throughout.
As to `COc1cc(/C=C2\CCC(CN(C)C)C2=O)ccc1OC(=O)c1ccccc1` (stereo not given), the TGI came to 52.4 µM with SK-OV-3 ovarian; 30.9 µM with UACC-62 melanoma; 74.8 µM in the assay with HS 578T breast; 22.9 µM in the assay with M14 melanoma; 21 µM with MCF7 breast; 26.6 µM with HT29 colon. The TGI in the assay on SN12C renal amounted to 25.1 µM; in the assay with MDA-MB-231 breast it was 19.1 µM; in the assay on SNB-19 CNS, 25.5 µM; in the assay on RPMI-8226 leukemia, 9.3 µM.
With `O=C(Nc1ccc(Cl)cc1)c1cc(-c2ccc(Cl)cc2)c2sc(=O)[nH]c2n1`, the GI50 with SK-OV-3 ovarian was 2.08 µM; with UACC-62 melanoma, 1.04 µM; in the assay on HS 578T breast, 3.04 µM; in the assay on M14 melanoma, 2.75 µM; with MCF7 breast, 1.78 µM; in the assay on HT29 colon, 2.13 µM. Further, the GI50 with SN12C renal is 2.12 µM; with MDA-MB-231 breast, 1.66 µM; in the assay on SNB-19 CNS it was 3.64 µM; in the assay with RPMI-8226 leukemia, 1.21 µM. The TGI was found to be 7.47 µM in the assay on SK-OV-3 ovarian; 4.91 µM in the assay with UACC-62 melanoma; 21.5 µM in the assay on HS 578T breast; 10.3 µM in the assay on M14 melanoma; 9.26 µM in the assay with MCF7 breast; 6.29 µM in the assay with HT29 colon. Moreover, the TGI in the assay with SN12C renal is 20.1 µM; with MDA-MB-231 breast it was 3.56 µM; in the assay with SNB-19 CNS, above 100 µM; in the assay with RPMI-8226 leukemia it was 14.2 µM.
